The results in this text go back to ChEMBL document CHEMBL4616651, “6-Deoxy- and 11-Hydroxytolypodiols: Meroterpenoids from the Cyanobacterium HT-58-2” (J Nat Prod, 2020).

Activity calls are given as the source filed them. The calls are words filed in the database; no cut-off is given here.

Experiment [1] has as its system Microglia. The experiment can be described thus: Antiinflammatory activity against LPS-induced rat Primary neonatal microglia assessed as inhibition in superoxide anion generation preincubated for 20 mins followed by PMA-stimulation and measured after 70 mins by spectrophotometric method. The experiment is classed as functional, cell-based.
Experiment [2] has as its system Microglia. As to the kind of experiment: Antiinflammatory activity against LPS-induced rat Primary neonatal microglia assessed as inhibition in TXB2 generation preincubated for 20 mins followed by PMA-stimulation and measured after 70 mins by immunoassay. The experiment is classed as functional, cell-based.
Another experiment concerns Mus musculus. As to the kind of experiment: Antiinflammatory activity in mouse assessed as reduction in PMA induced ear edema topically administered per ear and measured after 200 mins. The experiment is classed as functional.

As for `COC(=O)c1ccc2c(c1)C[C@H]1[C@]3(C)C[C@@H](O)[C@H]4C(C)(C)CC[C@@H](O)[C@]4(C)[C@H]3[C@@H](O)C[C@]1(C)O2`, in the experiment with Microglia [1], the inhibition entry was “inactive”. Further, the IC50 (commonly the concentration that gives 50% inhibition) in the experiment with Microglia [2] was 100 nM. Regarding `CC(C(=O)O)c1ccc(-c2ccccc2)c(F)c1` (stereo not given) [FLURBIPROFEN], the IC50 with Microglia [2] was found to be 100 nM. `C[C@]12CCC(=O)C=C1CC[C@@H]1[C@@H]2[C@@H](O)C[C@@]2(C)[C@H]1CC[C@]2(O)C(=O)CO` [HYDROCORTISONE]: in the experiment on Mus musculus, the ED50 is 20 µg. The same measure, in the same setting: under `COC(=O)c1ccc2c(c1)C[C@H]1[C@]3(C)C[C@@H](O)[C@H]4C(C)(C)CC[C@@H](O)[C@]4(C)[C@H]3CC[C@]1(C)O2` [TOLYPODIOL] stands 30 µg.
